Data published in article PMC10097024, “Cytotoxic and Antibacterial Prenylated Acylphloroglucinols from Hypericum olympicum L” (Plants, 2023).
Where “and” joins values, the source holds several entries; their conditions need not be identical. Equal values may be shown once. Read-outs that look alike come from different tables or passages of the source.

What was measured:
HL-60/DOX = assay: MTT cytotoxicity test; format: cell-based, human; conditions: 72 h exposure
From the text: (§1) The group of human cell lines used in this study were represented by the tumor cell lines MDA-MB (breast carcinoma), EJ (urinary bladder carcinoma), K-562 (chronic myeloid leukemia), HL-60 (acute pre-myeloid leukemia), HL-60/DOX (multi-drug resistant HL-60 cell line, with over expression of MRP-1) and the non-tumorigenic cell lines HEK-293 (embryonic kidney cells) and EA.hy926 (vascular endothelial cells). EJ, HL60 and EA.hy926 were purchased from American Type Culture Collection (ATCC) (Manassas, Virginia). The other cell lines were purchased from the German Collection of Microorganisms and Cell Cultures (DSMZ GmbH, Braunschweig, Germany). HL-60/DOX cell lines were generated by periodically treating HL-60 cells with anthracyclins. The conditions in which the cell culture flasks were maintained were as follows: 37 °C in an incubator “BB 16-Function Line” Heraeus (Kendro, Hanau, Germany) with 5% CO2 humidified atmosphere. The growth medium was 90% RPMI-1640, supplemented with 10% FBS and 2 mM L-glutamine. MDA-MB-231, EJ, HEK-293 and EA.hy926 cells were maintained as adherent monolayer cultures while all the other (leukemic) cell lines were grown as suspension type cultures. Cells were maintained in log phase: the adherent cell lines were subjected to trypsinization 1–2 times a week and the leukemic cell lines were passaged 2–3 times a week by removing of part of the cellular suspension and substituting it with fresh medium.
(§2) The evaluation of cytotoxic activity was conducted by MTT test as described previously. The median inhibitory concentration (IC50) values which represent the half-maximal concentration values were calculated from sigmoidal concentration–response curves, using non-linear regression analysis (Curve fit, GraphPad Prizm 5.0 software, GraphPad Software Inc., San Diego, CA, USA). The selectivity index was calculated as the ratio of the IC50 of a non-cancerous line (HEK-293 or EA.hy926) and the average IC50 of all chemosensitive tested tumor cell lines (x). Therefore, SI=IC50HEK-293/IC50x . The resistance index (RI) was calculated as the ratio of IC50 of the multi-drug resistant HL-60/DOX cell line and the IC50 of its parent cell line: RI=IC50HL-60/DOX/IC50HL-60 .

EJ = assay: MTT cytotoxicity test; format: cell-based, human; conditions: 72 h exposure
From the text: as §1, §2

HEK-293 = assay: MTT cytotoxicity test; format: cell-based, human
From the text: as §1, §2

HL-60 [1] = assay: MTT cytotoxicity test; format: cell-based, human; conditions: HL-60, 72 h exposure
From the text: as §1, §2

K-562 [2] = assay: MTT cytotoxicity test; format: cell-based, human
From the text: as §1, §2

EA.hy926 = assay: MTT cytotoxicity test; format: cell-based, human
From the text: as §1, §2

MDA-MB-231 = assay: MTT cytotoxicity test; format: cell-based, human; conditions: MDA-MB-231, 72 h exposure
From the text: as §1, §2

MRSA biofilm = assay: Biofilm assay of MRSA; format: cell-based, Staphylococcus aureus; conditions: for Absorbance at 550 nm of the MRSA biofilm (crystal violet): replicate wells; for IC50: read-out: MBIC50 (median biofilm inhibitory concentration)
From the text: The Gram-positive bacterial strains that were examined for susceptibility were: Staphylococcus aureus (ATCC 29213, American Type Cell Culture Collection, Manassas, VA, USA), Staphylococcus aureus—MRSA (NBIMCC 8327-resistant to methicillin and oxacillin, National Bulgarian Collection for Industrial Microorganisms and Cell Cultures, Sofia, Bulgaria), Enterococcus faecalis (ATCC 29212) and Streptococcus pyogenes (SAIMC 10535, Collection of the Stephan Angeloff Institute of Microbiology, Sofia, Bulgaria). The only Gram-negative bacterial strain used was Escherichia coli (ATCC 35218). Bacteria were maintained in Trypticase Soy Broth (TSB, Himedia, India) at 37 °C, aerobic conditions. For the experiments brain heart infusion (BHI) broth (#M210 HiMedia, Mumbai, India) was used for E. faecalis and S. pyogenes and Mueller Hinton broth (MHB, #M0405B) from Thermo Scientific-Oxoid (Basingstoke, UK)—for all other strains.
The bacterial inoculum was prepared as described above for the BMD. […] After that an optimized protocol was applied for the visualization of the biofilm. Firstly, the supernatant was removed, and planktonic cells were removed by washing the wells carefully 3× with 200 μL/well PBS. Then, fixing of the remaining cells was performed by incubation with 200 μL/well methanol for 15 sec at room temperature. The methanol was removed and the plate was dried by air for 5–10 s. Next, 50 μL of 2% Hucker crystal violet was poured into the wells and excess stain was rinsed off by running tap water. After that, the cells were air dried and the biofilm formation in the wells was documented microscopically (40×, Inverted trinocular biological microscope model BIB-100 and digital camera B-CAM16, application software B-View, Boeco, Hamburg, Germany). Then the dye bound to biofilm in the wells was re-solubilized with 160 μL 33% acetic acid and the absorbance of each well was measured at 550 nm with lid (Table S1 in Supplementary Materials). […] MBIC were assessed visually and MBIC50 were calculated by GraphPad Prism software with a mathematical model for a dose–response relationship (variable slope) after normalization of the data and logarithmic transformation of the applied concentrations (X-data).

HL-60 [3] = assay: Antiproliferative test (NCI methodology); format: cell-based, human; conditions: for TGI: HL-60, total growth inhibition; for GI50: HL-60, MTT readout
From the text: as §1
(§3) The test was performed according the methodology of National Cancer Institute (NCI), USA [116]. Briefly, cells were seeded into 96-well plates in the same way as for an MTT test and after 24 h, the absorption of one plate of each cell line was measured as in the MTT assay described above, to represent a measurement of the cell population at the time of drug-addition (Tz). The rest of the plates were treated with the tested compounds and the experiment for them continued as the MTT-method. Using the absorbance measurements [(Tz, untreated control growth (C) and test growth in the present of the compounds (Ti)], the percentage growth is calculated at each of the tested concentrations of the compounds. Percentage growth inhibition (GI) is calculated as GI%=Ti−Tz/C−Tz×100 for concentrations for which Ti ≥ Tz. For concentrations in which Ti < Tz it is calculated as GI%=Ti−Tz/Tz×100 . Two dose parameters are calculated for each experimental agent. Growth inhibition of 50% (GI50) is calculated from Ti−Tz/C−Tz×100=50 . This is the drug concentration resulting in a 50% reduction in the net protein increase (as measured by MTT-test) in control cells during the drug incubation. The drug concentration resulting in total growth inhibition (TGI) is calculated from Ti = Tz.

K-562 [4] = assay: Antiproliferative test (NCI methodology); format: cell-based, human; conditions: for GI50: K-562, MTT readout; for TGI: K-562, total growth inhibition
From the text: as §1, §3

[5] = Homo sapiens, HEK293, HEK-293, 72 h exposure
[6] = Homo sapiens, K562, K-562, 72 h exposure
[7] = Homo sapiens, EA.hy 926, EA.hy926, 72 h exposure
[8] = MRSA biofilm, assessed visually
[9] = Staphylococcus aureus, MRSA biofilm, interval in brackets
[10] = MRSA biofilm, interval in brackets

CC(C)=CCC[C@]1(C)[C@@H](CC=C(C)C)C[C@]2(C)C(=O)C(CC=C(C)C)=C(O)[C@@]1(C(=O)C(C)C)C2=O [Compound 3, hyperpolyphyllirin/hyperibine J]
IC50 (HL-60/DOX; Homo sapiens): 1.28 ± 0.2 µM
IC50 (EJ; Homo sapiens): 8.02 ± 1.6 µM
IC50 (HEK-293; [5]): 10.7 ± 2.1 µM
IC50 (HL-60 [1]; Homo sapiens): 10.9 ± 1.9 µM
IC50 (K-562 [2]; [6]): 3.17 ± 0.3 µM
IC50 (EA.hy926; [7]): 19.9 ± 3.1 µM
IC50 (MDA-MB-231; Homo sapiens): 2.63 ± 0.3 µM
Absorbance at 550 nm of the MRSA biofilm (crystal violet) (MRSA biofilm; 0.125 mg/L): 0.347 and 0.336
Absorbance at 550 nm of the MRSA biofilm (crystal violet) (MRSA biofilm; 0.25 mg/L): 0.376 and 0.403
Absorbance at 550 nm of the MRSA biofilm (crystal violet) (MRSA biofilm; 0.5 mg/L): 0.276 and 0.394
Absorbance at 550 nm of the MRSA biofilm (crystal violet) (MRSA biofilm; 1 mg/L): 0.249 and 0.184
Absorbance at 550 nm of the MRSA biofilm (crystal violet) (MRSA biofilm; 2 mg/L): 0.353 and 0.444
Absorbance at 550 nm of the MRSA biofilm (crystal violet) (MRSA biofilm; 4 mg/L): 0.110 and 0.099
MBIC (MRSA biofilm; MRSA biofilm): 4 mg/L
MBIC (minimum biofilm inhibitory concentration) (MRSA biofilm; MRSA biofilm): 8.29 µM
MBIC (minimum biofilm inhibitory concentration) (MRSA biofilm; [8]): 4.0 mg/L
IC50 (MRSA biofilm; [9]): 0.17 µg/mL and 350 nM
TGI (HL-60 [3]): 47.43 µM
GI50 (HL-60 [3]; Homo sapiens): 41.1 µM
GI50 (K-562 [4]; Homo sapiens, K562): 0.44 µM
TGI (K-562 [4]): 0.77 µM

CC(C)=CCC[C@]1(C)[C@@H](CC=C(C)C)C[C@H]2C(=O)[C@]1(C(=O)C(C)C)C(=O)C(CC=C(C)C)=C2O [Compound 5, (1S,5R,7S,8R)-4-hydroxy-1-isobutyryl-8-methyl-3,7-bis(3-methylbut-2-en-1-yl)-8-(4-methylpent-3-en-1-yl)bicyclo[3.3.1]non-3-ene-2,9-dione]
IC50 (HL-60/DOX; Homo sapiens): 1.71 ± 0.2 µM
IC50 (EJ; Homo sapiens): 1.21 ± 0.3 µM
IC50 (HEK-293; [5]): 0.89 ± 0.1 µM
IC50 (HL-60 [1]; Homo sapiens): 1.16 ± 0.1 µM
IC50 (K-562 [2]; [6]): 1.58 ± 0.1 µM
IC50 (EA.hy926; [7]): 9.43 ± 2 µM
IC50 (MDA-MB-231; Homo sapiens): 1.31 ± 0.2 µM
Absorbance at 550 nm of the MRSA biofilm (crystal violet) (MRSA biofilm; 0.063 mg/L): 0.978 and 1.044
Absorbance at 550 nm of the MRSA biofilm (crystal violet) (MRSA biofilm; 0.125 mg/L): 0.926 and 0.790
Absorbance at 550 nm of the MRSA biofilm (crystal violet) (MRSA biofilm; 0.25 mg/L): 0.592 and 0.502
Absorbance at 550 nm of the MRSA biofilm (crystal violet) (MRSA biofilm; 0.5 mg/L): 0.534 and 0.342
Absorbance at 550 nm of the MRSA biofilm (crystal violet) (MRSA biofilm; 1 mg/L): 0.332 and 0.406
MBIC (MRSA biofilm; MRSA biofilm): 0.5 mg/L
MBIC (minimum biofilm inhibitory concentration) (MRSA biofilm; MRSA biofilm): 1.07 µM
MBIC (minimum biofilm inhibitory concentration) (MRSA biofilm; [8]): 0.5 mg/L
IC50 (MRSA biofilm; [9]): 0.05 µg/mL and 120 nM

(1R,5R,7S,8R)-4-hydroxy-5,8-dimethyl-3,7-bis(3-methylbut-2-en-1-yl)-1-(2-methylbutanoyl)-8-(4-methylpent-3-en-1-yl)bicyclo[3.3.1]non-3-ene-2,9-dione [Compound 4]
IC50 (HL-60/DOX): 12.2 ± 3.2 µM
IC50 (EJ): 8.06 ± 1.7 µM
IC50 (HEK-293; HEK-293, 72 h exposure): 35.8 ± 4.4 µM
IC50 (HL-60 [1]): 22.2 ± 3.4 µM
IC50 (K-562 [2]; K-562, 72 h exposure): 17.2 ± 3 µM
IC50 (EA.hy926; EA.hy926, 72 h exposure): 5.34 ± 1.9 µM
IC50 (MDA-MB-231): 12.5 ± 2.1 µM
Absorbance at 550 nm of the MRSA biofilm (crystal violet) (MRSA biofilm; 0.78 mg/L): 0.324 and 0.229 and 0.230
Absorbance at 550 nm of the MRSA biofilm (crystal violet) (MRSA biofilm; 1.56 mg/L): 0.248 and 0.194 and 0.193
Absorbance at 550 nm of the MRSA biofilm (crystal violet) (MRSA biofilm; 3.13 mg/L): 0.264 and 0,195 and 0,139
Absorbance at 550 nm of the MRSA biofilm (crystal violet) (MRSA biofilm; 6.25 mg/L): 0.184 and 0.121 and 0.092
Absorbance at 550 nm of the MRSA biofilm (crystal violet) (MRSA biofilm; 12.5 mg/L): 0.152 and 0.150 and 0.072
MBIC (minimum biofilm inhibitory concentration) (MRSA biofilm; MRSA biofilm): 25.17 µM
MBIC (minimum biofilm inhibitory concentration) (MRSA biofilm; [8]): 12.5 mg/L
MBIC50 (median biofilm inhibitory concentration) (MRSA biofilm; [10]): 0.67 (0.39 to 1.17) mg/L
IC50 (MRSA biofilm; [10]): 1.35 µM
GI50 (HL-60 [3]): 41.1 µM
TGI (HL-60 [3]): 55.55 µM
GI50 (K-562 [4]): 16 µM
TGI (K-562 [4]): 18.38 µM
